Source: patent US12110289B2, “Heterocyclic compounds, preparation methods and uses thereof” (InventisBio Co., Ltd., priority 2020, dated 2024)
Where two headings read alike, the source gives them in different places.

Columns and labels:
[1] = Human hepatocyte clearance study; type: in vitro ADME; conditions: human, pooled cryopreserved human hepatocytes (suspension), working cell density 0.5 × 10^6 viable cells/mL; for hepatocyte CLint at 1 µM: read-out: Human In vitro Clint (μl/min/10^6 cells); for half-life at 1 µM: read-out: Human In vitro T1/2; for CLint scaled at 1 µM: scaling factor 2544.3, read-out: Human Scale-up Clint
Procedure: (§1) The in vitro human hepatocyte clearance of compounds described here was studied using pooled human hepatocytes purchased from BioreclamationIVT (Westbury, NY, Cat #X008001, Lot #TQJ). The assay was conducted according to manufacturer's instruction. Briefly, 10 mM stock solutions of test compounds and positive control (Verapamil) were prepared in 100% DMSO. Thawing media (50 mL) used in the study consists of 31 mL Williams E medium (GIBCO Cat #12551-032), 15 mL isotonic percoll (GE Healthcare Cat #17-0891-09), 500 uL 100× GlutaMax (GIBCO Cat #35050), 750 uL HEPES (GIBCO Cat #15630-080), 2.5 mL FBS (Corning Cat #35-076-CVR), 50 uL human insulin (GIBCO Cat #12585-014) and 5 uL dexamethasone (NICPBP). Incubation media is made of Williams E medium supplemented with 1× GlutaMax. Both thawing medium and incubation medium (serum-free) were placed in a 37° C. water bath for at least 15 minutes prior to use. Compound stock solutions were diluted to 100 μM by combining 198 μL of 50% acetonitrile/50% water and 2 μL of 10 mM stock solution. Verapamil was use as positive control in the assay. Vials of cryopreserved hepatocytes were removed from storage and thawed in a 37° C. water bath with gentle shaking. Contents of the vial were poured into the 50 mL thawing medium conical tube. Vials were centrifuged at 100 g for 10 minutes at room temperature. […] […] […] The boiled hepatocytes were used to prepare negative samples. Aliquots of 198 μL hepatocytes were dispensed into each well of a 96-well non-coated plate. The plate was placed in the incubator on an orbital shaker at 500 rpm for approximately 10 minutes. Aliquots of 2 μL of the 100 μM test compound or positive control were added into respective wells of the non-coated 96-well plate to start the reaction. This assay was performed in duplicate. The plate was incubated in the incubator on an orbital shaker at 500 rpm for the designated time points. Twenty-five microliter of contents were transferred and mixed with 6 volumes (150 μL) of cold acetonitrile with IS (200 nM imipramine, 200 nM labetalol and 200 nM diclofenac) to terminate the reaction at time points of 0, 15, 30, 60, 90 and 120 minutes. Samples were centrifuged at 3,220 g for 25 minutes and aliquots of 150 μL of the supernatants were used for LC-MS/MS analysis. For data analysis, all calculations were carried out using Microsoft Excel. Peak areas were determined from extracted ion chromatograms. The in vitro half-life (t1/2) of parent compound was determined by regression analysis of the percent parent disappearance vs. time curve. […] Scaling factors for in vivo intrinsic clearance prediction using human hepatocytes are listed as: liver weight (g liver/kg body weight): 25.7; hepatocyte concentration (10^6 cells/g liver): 99; scaling factor: 2544.3.

pooled human hepatocytes = assay: Human hepatocyte clearance study; type: in vitro ADME; conditions: working cell density 0.5 × 10^6 viable cells/mL
Procedure: as §1

[2] = test system: Lung cancer cell line NCI-H358 containing KRas G12C mutation; assay: Assay for cell proliferation (Cell-titer Glo, 5 days); type: cell-based, human; conditions: NCI-H358, 5 days, Cell-titer Glo, read-out: IC50 (nM), Inhibition of NCI-H358 Cell Proliferation
Outline: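 NCI-H358 (KRas G12C) cells, 2000 per well, attached overnight at 37 °C, 5% CO2, then treated with compound for 5 days at 0.5% DMSO final. Proliferation measured by CellTiter-Glo luminescence after 10 min at RT.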

SMILES	hepatocyte CLint at 1 µM [1] [µL/min/1e6 cells]	half-life at 1 µM [1] [h]	CLint scaled at 1 µM [1] [mL/min/kg]	Human Hepatocyte Remaining Percentage @ 120 min (%) (pooled human hepatocytes)	IC50 ([2]; Homo sapiens, NCI-H358, 120 h) [nM]	Human In vitro T1/2 (min) (pooled human hepatocytes)	IC50 [2] [nM]
C=CC(=O)N1CCN(c2nc(=O)n(-c3c(C4CC4)ncnc3C3CC3)c3nc(-c4ccccc4F)c(Cl)cc23)[C@@H](C)C1 [Compound 1]	20.8	1.11	53	27.9	10		
C=CC(=O)N1CCN(c2nc(=O)n(-c3c(C(C)C)nc(N)nc3C(C)C)c3nc(-c4ccccc4F)c(Cl)cc23)[C@@H](C)C1 [Compound 6]	19.3	1.2	49.2	33.4	4.9		
C=CC(=O)N1CCN(c2nc(=O)n(-c3c(C(C)C)nc(OC)nc3C(C)C)c3nc(-c4ccccc4F)c(Cl)cc23)[C@@H](C)C1 [Compound 8]	63.8	0.362	162	2.1	11.2		
C=CC(=O)N1CCN(c2nc(=O)n(-c3c(C(C)C)nc(C)nc3C(C)C)c3nc(-c4ccccc4F)c(Cl)cc23)[C@@H](C)C1 [Compound 9]	27.6	0.837	70.2	18.6	4.1		
C=CC(=O)N1CCN(c2nc(=O)n(-c3c(C(C)C)nc(OCCN(C)C)nc3C(C)C)c3nc(-c4ccccc4F)c(Cl)cc23)[C@@H](C)C1 [Compound 13]				103	6.5	∞^b	
C=CC(=O)N1CCN(c2nc(=O)n(-c3c(C(C)C)nc(N4CCNCC4)nc3C(C)C)c3nc(-c4ccccc4F)c(Cl)cc23)[C@@H](C)C1 [Compound 14]	4.5	5.1	11.5	75.7	8.8		
C=CC(=O)N1CCN(c2nc(=O)n(-c3c(C4CC4)nc(OCCN(C)C)nc3C3CC3)c3nc(-c4ccccc4F)c(Cl)cc23)[C@@H](C)C1 [Compound 20]	5.1	4.57	12.9	74.3	6.7		
C=CC(=O)N1CCN(c2nc(=O)n(-c3c(C4CC4)nc(OCCN(C)C)nc3C3CC3)c3nc(-c4ccccc4F)c(F)cc23)[C@@H](C)C1 [Compound 21]	1.8	13.1	4.5	90.6	29.9		
C=CC(=O)N1CCN(c2nc(=O)n(-c3c(C(C)C)nc(OCCN(C)C)nc3C(C)C)c3nc(-c4c(O)cccc4F)c(Cl)cc23)[C@@H](C)C1 [Compound 22]	2.9	7.87	7.5	83.3	7.6		
C=CC(=O)N1CCN(c2nc(=O)n(-c3c(C(C)C)nc(OCCN(C)C)nc3C(C)C)c3nc(-c4c(N)cccc4F)c(Cl)cc23)[C@@H](C)C1 [Compound 23]	2.5	9.23	6.4	82.4	6.9		
C=CC(=O)N1C[C@H](C)N(c2nc(=O)n(-c3c(C(C)C)nc(OCCN(C)C)nc3C(C)C)c3nc(-c4ccccc4F)c(Cl)cc23)C[C@H]1C [Compound 24]	5.9	3.9	15.1	70.1	9.1		
C=CC(=O)N1CCN(c2nc(=O)n(-c3c(C4CC4)nc(C)nc3C3CC3)c3nc(-c4c(O)cccc4F)c(F)cc23)[C@@H](C)C1 [Compound 28]	8.4	2.73	21.5	61.1	23.3		
C=CC(=O)N1CCN(c2nc(=O)n(-c3c(C4CC4)nc(C)nc3C3CC3)c3nc(-c4c(N)cccc4F)c(F)cc23)[C@@H](C)C1 [Compound 29]	8.5	2.72	21.7	60.8	11.4		
C=CC(=O)N1CCN(c2nc(=O)n(-c3c(C4CC4)nc(N4CCNCC4)nc3C3CC3)c3nc(-c4ccccc4F)c(Cl)cc23)[C@@H](C)C1 [Compound 116]					15.8		
C=CC(=O)N1CCN(c2nc(=O)n(-c3c(C(C)C)nc4ocnc4c3C)c3nc(-c4ccccc4F)c(Cl)cc23)[C@@H](C)C1 [Compound 117]					12.9		
C=CC(=O)N1CCN(c2nc(=O)n(-c3c(C(C)C)nc(C(F)(F)F)nc3C(C)C)c3nc(-c4c(N)cccc4F)c(F)cc23)[C@@H](C)C1 [Compound 118]					40.2		
C=CC(=O)N1CCN(c2nc(=O)n(-c3c(C4CC4)nc(OC(F)F)nc3C3CC3)c3nc(-c4c(N)cccc4F)c(F)cc23)[C@@H](C)C1 [Compound 119]					9.6		
C[C@H]1CN(C(=O)/C=C/CN2CC(F)C2)CCN1c1nc(=O)n(-c2c(C3CC3)ncnc2C2CC2)c2nc(-c3c(N)cccc3F)c(Cl)cc12 [Compound 120]					146		
C=CC(=O)N1C[C@H](C)N(c2nc(=O)n(-c3c(C(C)C)nc(C(=O)O)nc3C(C)C)c3nc(-c4ccccc4F)c(F)cc23)C[C@H]1C [Compound 121]					> 3000		
C=CC(=O)N1C[C@H](C)N(c2nc(=O)n(-c3c(C(C)C)nc(C(=O)O)nc3C(C)C)c3nc(-c4c(O)cccc4F)c(F)cc23)C[C@H]1C [Compound 122]					> 3000		
C=CC(=O)N1C[C@H](C)N(c2nc(=O)n(-c3c(C(C)C)nc(C(=O)O)nc3C(C)C)c3nc(-c4c(N)cccc4F)c(F)cc23)C[C@H]1C [Compound 123]					> 3000		
C=C(F)C(=O)N1CCN(c2nc(=O)n(-c3c(C4CC4)ncnc3C3CC3)c3nc(-c4c(N)cccc4F)c(Cl)cc23)[C@@H](C)C1 [Compound 131]					210		
C=C(F)C(=O)N1C[C@H](C)N(c2nc(=O)n(-c3c(C4CC4)ncnc3C3CC3)c3nc(-c4c(N)cccc4F)c(Cl)cc23)C[C@H]1C [Compound 132]					157		
COC/C=C/C(=O)N1C[C@H](C)N(c2nc(=O)n(-c3c(C4CC4)ncnc3C3CC3)c3nc(-c4c(N)cccc4F)c(Cl)cc23)C[C@H]1C [Compound 140]					58.7		
C=CC(=O)N1CCN(c2nc(=O)n(-c3c(C)cc4c(ncn4C)c3C(C)C)c3nc(-c4c(N)cccc4F)c(Cl)cc23)[C@@H](C)C1 [Compound 152]							0.4
C=CC(=O)N1CCN(c2nc(=O)n(-c3c(C)nc4c(ncn4C)c3C(C)C)c3nc(-c4c(N)cccc4F)c(F)cc23)[C@@H](C)C1 [Compound 157]							152
C=CC(=O)N1C[C@H](C)N(c2nc(=O)n(-c3c(F)cc4c(ncn4C)c3C(C)C)c3nc(-c4c(O)cccc4F)c(Cl)cc23)C[C@H]1C [Compound 166]					1.5		
C=CC(=O)N1C[C@H](C)N(c2nc(=O)n(-c3c(C(C)C)nc4c(ncn4C)c3C)c3nc(-c4ccccc4F)c(Cl)cc23)C[C@H]1C [Compound 181]							44.4
